Experiments:
Mutant PI3Kα (E545K) = Mutant PI3Kα (E545K) (Homo sapiens, UniProt P42336, E545K); test: In vitro enzymatic activity test, mutant PI3Kα (E545K); format: biochemical
Text: (§1) The crystal form A of the compound represented by formula (I) has a strong inhibitory effect on both wild-type and mutant PI3Kα kinases. […] The crystal form A of the compound represented by formula (I) has excellent selectivity to the other three subtypes of PI3K, and its inhibitory activity against PI3Kα is 149/7.44/6.61 times higher than that of PI3Kβ/δ/γ, respectively. The specific experimental method was the same as experimental embodiment 8. […] The specific experimental method was the same as experimental embodiment 9.
(§2) The lipid kinase reaction was carried out in a suitable substrate and under ATP conditions, then the activity of the kinase was detected by ADP-Glo™ kit in two steps. Step 1: the kinase reaction was terminated, in which the residual ATP was completely removed and only ADP was retained; step 2: kinase detection reagent was added to convert ADP to ATP, accompanied by fluorescein/luciferase reaction. Finally, the fluorescence value output was converted into kinase activity.
(§3) Experimental Materials and Equipment:
(§4) 2) Kit: ADP-Glo™ lipid kinase and PIP2:3PS kit (Promega #V1792)
(§5) The reagent kit contains: 1 mM PIP2:3PS, 10× lipid dilution buffer, 1 M magnesium chloride, 10 mM ATP, 10 mM ADP, ADP-Glo reagent, detection buffer and detection substrate. […]
(§6) (16) Fluorescence values were measured on the Envision instrument.

[1] = system: HR+/HER2+ human breast cancer BT-474 (PIK3CA amplified); test: In vivo pharmacodynamic study, BT-474 nude mouse subcutaneous xenograft tumor model; design: species or system BALB/c nude mice
Method: The phenotype of human BT-474 breast cancer cells is HR+/HER2+, and it has PIK3CA amplification. This experiment evaluated the efficacy of the crystal form A of the compound represented by formula (I) in a human breast cancer xenograft tumor model, using BYL-719 as a reference.
Cell culture: Human breast cancer BT474 cells were cultured in vitro in a single layer, the culture condition was Hybri-Care medium with 10% fetal bovine serum and the cells were incubated in 5% CO2 at 37° C. Digestion and passage treatment with trypsin-EDTA was carried out twice a week. When the cell saturation was 80%-90% and the number reached the requirement, the cells were collected, counted and inoculated.
Animals: BALB/c nude mice, female, 6-8 weeks old, weighing 18-20 g. A total of 85 animals were required, and provided by Shanghai Bikai experimental animal Co., Ltd.
Tumor inoculation: Estrogen tablets (0.36 mg/tablet) were subcutaneously inoculated on the left back of each mouse, three days later, 0.2 mL (10×10^6 cells) of BT474 cells (with matrigel in a volume ratio of 1:1) were subcutaneously inoculated on the right back of each mouse, group administration was started when the average tumor volume reached 150 mm^3−200 mm^3.
Tumor-bearing mice in each administration group had good tolerance to the tested compounds.

PI3Kβ = target: T1, PI3Kβ (Homo sapiens, UniProt P42338); test: In vitro enzymatic activity test (ADP-Glo lipid kinase), PI3Kβ; format: biochemical; details: inhibitory activity against PI3Kα relative to PI3Kβ
T1 construct: purchased Promega V1751
Method: as §2, §3, §4
The reagent kit contains: 1 mM PIP2:3PS, 10× lipid dilution buffer, 1 M magnesium chloride, 10 mM ATP, 10 mM ADP, ADP-Glo reagent, detection buffer and detection substrate.
3) Reaction plate: OptiPlate-384, white and transparent (PerkinElmer #6007299)
1) 10× reaction buffer: 500 mM HEPES, pH 7.5, 500 mM NaCl, […]; BSA: 10% stock solution, self-made
2) Final test system conditions: 1× reaction system: 50 mM of HEPES, 50 mM of NaCl, 3 mM of MgCl2, 0.01% BSA (freshly prepared on the day of experiment), 1% DMSO (v/v)+/−compound
3) Reaction system: 3 μL of mixture of enzyme and substrate (1:1)+2 μL of ATP/MgCl2 mixture+5 μL of ADP-Glo reagent+10 μL of detection reagent.
The specific experimental operations were as follows: […]
as §6

RAW264.7 = test: Akt phosphorylation inhibition in RAW264.7 cells (high expression of PI3Kγ); format: cell-based; details: RAW264.7 cell line with high expression of PI3Kγ
Mutant PI3Kα (H1047R) = Mutant PI3Kα (H1047R) (Homo sapiens, UniProt P42336, H1047R); test: In vitro enzymatic activity test, mutant PI3Kα (H1047R); format: biochemical
Text: as §1, §2, §3, §4, §5, §6

[2] = 10 mg/kg, oral once a day for 20 days
[3] = 10 mg/kg, oral once a day for 20 days, listed as crystal form A of the compound represented by formula (I)
[4] = 20 mg/kg, oral once a day for 20 days
[5] = 20 mg/kg, oral once a day for 20 days, listed as crystal form A of the compound represented by formula (I)
[6] = 40 mg/kg, oral once a day for 20 days
[7] = 40 mg/kg, oral once a day for 20 days, listed as crystal form A of the compound represented by formula (I)

T1 sequence (P42338 whole entry): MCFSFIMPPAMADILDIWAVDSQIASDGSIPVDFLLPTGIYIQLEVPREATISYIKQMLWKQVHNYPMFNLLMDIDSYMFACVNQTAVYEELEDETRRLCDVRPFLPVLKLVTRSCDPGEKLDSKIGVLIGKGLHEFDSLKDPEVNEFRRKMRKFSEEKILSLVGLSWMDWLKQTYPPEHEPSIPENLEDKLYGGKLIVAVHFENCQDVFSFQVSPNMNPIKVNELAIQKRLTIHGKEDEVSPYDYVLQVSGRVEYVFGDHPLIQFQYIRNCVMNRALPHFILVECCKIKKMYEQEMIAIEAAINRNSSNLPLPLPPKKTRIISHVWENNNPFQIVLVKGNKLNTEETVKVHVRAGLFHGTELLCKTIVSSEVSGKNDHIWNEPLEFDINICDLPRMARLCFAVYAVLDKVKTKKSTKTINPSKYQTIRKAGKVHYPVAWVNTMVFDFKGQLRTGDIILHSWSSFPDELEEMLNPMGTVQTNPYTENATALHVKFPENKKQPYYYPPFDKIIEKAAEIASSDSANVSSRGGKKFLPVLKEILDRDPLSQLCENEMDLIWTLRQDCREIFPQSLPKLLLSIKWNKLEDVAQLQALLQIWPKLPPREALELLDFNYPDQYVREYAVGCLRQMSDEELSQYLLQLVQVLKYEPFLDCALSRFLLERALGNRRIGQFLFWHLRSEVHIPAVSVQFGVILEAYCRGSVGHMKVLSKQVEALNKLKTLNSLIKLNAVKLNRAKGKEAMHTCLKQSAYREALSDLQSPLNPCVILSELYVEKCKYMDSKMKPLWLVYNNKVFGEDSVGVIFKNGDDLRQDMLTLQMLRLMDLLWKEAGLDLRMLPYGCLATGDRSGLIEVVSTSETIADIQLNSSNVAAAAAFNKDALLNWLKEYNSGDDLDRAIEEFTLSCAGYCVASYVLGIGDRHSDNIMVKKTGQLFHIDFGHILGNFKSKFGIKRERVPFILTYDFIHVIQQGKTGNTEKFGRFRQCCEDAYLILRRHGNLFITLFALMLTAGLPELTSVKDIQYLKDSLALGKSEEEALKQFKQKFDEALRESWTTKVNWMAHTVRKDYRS
T1 sequence (P27986 whole entry partner): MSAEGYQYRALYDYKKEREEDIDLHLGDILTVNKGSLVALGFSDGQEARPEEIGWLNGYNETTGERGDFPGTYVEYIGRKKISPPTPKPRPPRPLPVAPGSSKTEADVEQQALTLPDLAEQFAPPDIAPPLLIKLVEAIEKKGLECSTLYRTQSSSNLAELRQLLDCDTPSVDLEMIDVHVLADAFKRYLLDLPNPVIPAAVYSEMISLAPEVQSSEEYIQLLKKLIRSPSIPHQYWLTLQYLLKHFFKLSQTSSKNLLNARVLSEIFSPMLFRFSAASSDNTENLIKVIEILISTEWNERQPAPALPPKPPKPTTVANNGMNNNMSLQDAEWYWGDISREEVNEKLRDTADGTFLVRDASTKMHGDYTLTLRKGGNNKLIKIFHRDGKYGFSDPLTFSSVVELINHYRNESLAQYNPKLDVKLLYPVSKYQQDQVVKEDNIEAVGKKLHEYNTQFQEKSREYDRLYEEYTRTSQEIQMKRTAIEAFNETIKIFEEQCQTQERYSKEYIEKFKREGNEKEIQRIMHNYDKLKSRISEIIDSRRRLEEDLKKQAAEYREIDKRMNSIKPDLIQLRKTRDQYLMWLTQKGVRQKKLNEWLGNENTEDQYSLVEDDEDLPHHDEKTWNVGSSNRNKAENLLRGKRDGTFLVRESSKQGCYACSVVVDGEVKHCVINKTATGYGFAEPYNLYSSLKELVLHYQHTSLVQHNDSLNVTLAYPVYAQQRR
Sequence of Mutant PI3Kα (H1047R) (P42336 whole entry H1047R): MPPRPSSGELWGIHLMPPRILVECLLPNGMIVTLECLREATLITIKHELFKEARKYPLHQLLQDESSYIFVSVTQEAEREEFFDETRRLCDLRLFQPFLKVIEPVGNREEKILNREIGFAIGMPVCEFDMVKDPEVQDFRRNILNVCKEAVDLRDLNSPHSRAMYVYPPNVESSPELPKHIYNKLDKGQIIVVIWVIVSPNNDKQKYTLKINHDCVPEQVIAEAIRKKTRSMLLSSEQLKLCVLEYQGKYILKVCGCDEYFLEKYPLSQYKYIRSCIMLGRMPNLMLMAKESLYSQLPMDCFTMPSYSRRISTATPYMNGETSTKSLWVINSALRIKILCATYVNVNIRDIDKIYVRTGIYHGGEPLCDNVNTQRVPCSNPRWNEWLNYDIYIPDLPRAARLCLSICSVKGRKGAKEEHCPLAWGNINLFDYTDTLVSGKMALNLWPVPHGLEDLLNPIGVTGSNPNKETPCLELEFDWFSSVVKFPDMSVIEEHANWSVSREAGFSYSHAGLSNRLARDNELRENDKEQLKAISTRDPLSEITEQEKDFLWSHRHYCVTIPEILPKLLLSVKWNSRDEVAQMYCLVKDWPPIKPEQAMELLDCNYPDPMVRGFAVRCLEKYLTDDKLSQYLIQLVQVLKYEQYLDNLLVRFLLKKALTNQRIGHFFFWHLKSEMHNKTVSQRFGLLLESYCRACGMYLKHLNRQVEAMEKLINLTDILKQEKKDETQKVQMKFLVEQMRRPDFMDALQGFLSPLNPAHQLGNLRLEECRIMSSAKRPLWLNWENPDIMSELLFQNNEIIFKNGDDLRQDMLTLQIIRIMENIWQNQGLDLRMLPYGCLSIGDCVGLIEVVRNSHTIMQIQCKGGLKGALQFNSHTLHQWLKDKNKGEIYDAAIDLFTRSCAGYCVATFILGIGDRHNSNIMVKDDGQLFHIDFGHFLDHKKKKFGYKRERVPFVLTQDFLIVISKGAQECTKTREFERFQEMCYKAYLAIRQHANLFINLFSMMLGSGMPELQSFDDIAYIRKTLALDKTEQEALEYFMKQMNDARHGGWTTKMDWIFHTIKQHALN
Sequence of Mutant PI3Kα (H1047R) (P27986 whole entry partner): as the sequence (P27986 whole entry partner) above
Sequence of Mutant PI3Kα (E545K) (P42336 whole entry E545K): as the sequence (P42336 whole entry H1047R) above, with E545K, R1047H counted along it
Sequence of Mutant PI3Kα (E545K) (P27986 whole entry partner): as the sequence (P27986 whole entry partner) above

- IC50 (Mutant PI3Kα (E545K)): 1.13 nM
- Selectivity PI3Kα/β (kinase) (PI3Kβ): 149 times
- IC50 (Mutant PI3Kα (H1047R)): 0.69 nM
Structure (SMILES): CNC(=O)[C@H](C)Cn1cnc2ccc(-c3cnc(OC)c(NS(=O)(=O)c4ccc(F)cc4F)c3)cc2c1=O
- Anti-tumor effect (in words) ([1]; 10 mg/kg group): strong anti-tumor effect
- T/C % [1, 2]: 50.18%
- TGI % [1, 2]: 65.34%
- T/C % [1, 3]: 50.18%
- TGI % [1, 3]: 65.34%
- Anti-tumor effect (in words) ([1]; 20 mg/kg group): strong anti-tumor effect
- T/C % [1, 4]: 37.92%
- TGI % [1, 4]: 80.21%
- T/C % [1, 5]: 37.92%
- TGI % [1, 5]: 80.21%
- Anti-tumor effect (in words) ([1]; 40 mg/kg group): significant anti-tumor effects
- T/C % [1, 6]: 21.16%
- TGI % [1, 6]: 105.65%
- T/C % [1, 7]: 21.16%
- TGI % [1, 7]: 105.65%
- Dose to play the effect ([1]; oral once a day for 20 days): 10 mg/kg
- Selectivity PI3Kα over PI3Kγ, Akt phosphorylation inhibitory activity in cells (RAW264.7): > 694 times
